Test results: the NIST ThermoML archive (doi:10.1016/j.jct.2016.11.022)
± gives the expanded uncertainty stated by the source.

What was measured:
[1] = Molar enthalpy of transition or fusion; settings: DSC
[2] = DTA

| SMILES | Molar enthalpy of transition or fusion ([1]; Crystal) [kcal/mol] | Normal melting temperature ([2]; Crystal) [°C] | Molar enthalpy of transition or fusion ([1]; Metastable crystal) [kcal/mol] | Normal melting temperature ([2]; Metastable crystal) [°C] |
| --- | --- | --- | --- | --- |
| CCCCCCCCCCCCCCCCCC(=O)O [octadecanoic acid] | 14.4 ± 1.46 | 69.47 ± 1.1 | – | – |
| CC(N)=O [ethanamide] | 3.26 ± 0.335 | 80.62 ± 1.1 | 2.78 ± 0.287 | 70.14 ± 1.1 |
